Data reported in US6700013B2, “Tricyclic fused heterocycle compounds, process for preparing the same and use thereof” (Nippon Suisan Kaisha, Ltd., priority 1999, dated 2004).

Tested on: pig tracheal smooth muscles
Assay: Dilating action on contraction of tracheal smooth muscles (high K+ contraction, Magnus tube)
Conditions: Sus scrofa, 2 h; K+ contraction (72.7 mM); test substance final concentration 10 μM; two hours after addition; tension before addition = 100%; read-out: Relative Contraction Force (%)
Source text: With the use of pig tracheal muscles, the action of the compounds of the present invention on contraction of tracheal muscles has been investigated. The method refers to “Smooth Muscle Manual” (published by Bun'eido Publishing Co.), pp. 125-137. The trachea cartilage mucous membrane and submucous tissue of a pig trachea were removed to prepare a specimen of tracheal smooth muscles having a major diameter of about 10 mm and a minor diameter of about 1.5 mm. This specimen was suspended in a Magnus tube which was aerated with a mixed gas of 95% of oxygen and 5% of carbon dioxide and contained nutrient solution at 37° C. and a load of 0.8 g was applied to this specimen, and after the tension of the specimen was stabilized, the nutrient solution was replaced with a high concentration K^+ solution (72.7 mM) to provoke K^+ contraction. The procedure of replacing the solution in the Magnus tube with the nutrient solution to wash the solution and provoking K^+ contraction with the high concentration K^+ solution was repeated again until the contraction force became constant. When the tension of the K^+ contraction became constant, each of the compounds described in Table 19 (the structural formula of the Comparative Example being described in the right side of the compound of the above described Example 180) was added to the high concentration K^+ solution as the test substance to measure the change in tension. The test substance was dissolved in dimethyl sulfoxide at a predetermined concentration and added to the high concentration K^+ solution in such a manner that the final concentration came to 10 μM. The trachea cartilage mucous membrane and submucous tissue of a pig trachea were removed to prepare a specimen of tracheal smooth muscles having a major diameter of about 10 mm and a minor diameter of about 1.5 mm. This specimen was suspended in a Magnus tube which was aerated with a mixed gas of 95% of oxygen and 5% of carbon dioxide and contained nutrient solution at 37° C. and a load of 0.8 g was applied to this specimen, and after the tension of the specimen was stabilized, the nutrient solution was replaced with a high concentration K+ solution (72.7 mM) to provoke K+ contraction. The procedure of replacing the solution in the Magnus tube with the nutrient solution to wash the solution and provoking K+ contraction with the high concentration K+ solution was repeated again until the contraction force became constant. When the tension of the K+ contraction became constant, each of the compounds described in Table 19 (the structural formula of the Comparative Example being described in the right side of the compound of the above described Example 180) was added to the high concentration K+ solution as the test substance to measure the change in tension. The test substance was dissolved in dimethyl sulfoxide at a predetermined concentration and added to the high concentration K+ solution in such a manner that the final concentration came to […]. Further, the final concentration of dimethyl sulfoxide added was made 0.3% or less. The change in tension was led to a strain pressure amplifier (“AP-621G3”, manufactured by Nippon Koden Kogyo) through a FD pickup transducer (“TB-611T”, manufactured by Nippon Koden Kogyo) and recorded on a recorder (“R-64V”, manufactured by Rika Electric). When the tension before replacement with the high concentration K+ solution was regarded as 0% and the last tension which was generated by the high concentration K+ solution before the addition of a test substance was regarded as 100%, the contraction force of the tracheal smooth muscle two hours after addition of a test substance was shown as relative percentage. […]

Row | SMILES | activity at 10 µM
1 | Oc1cc(O)c2c(c1)Sc1cc(-c3ccco3)ccc1CC2 [Example 124] | 30.3%
2 | Oc1cc(O)c2c(c1)Oc1cc(-c3cccs3)ccc1CC2 [Example 110] | 10.9%
3 | O=C1Cc2c(Cl)cccc2Sc2cc(O)cc(O)c21 [Example 17] | 0%
4 | Oc1cc(O)c2c(c1)Sc1cccc(Cl)c1CC2 [Example 27] | 1.4%
5 | Oc1cc(O)c2c(c1)Sc1ccccc1CC2 [Comparative Example, reference compound] | 54.5%
6 | CC1C(=O)c2cc(O)c(O)cc2Sc2ccccc21 (stereo not drawn) [Example 37] | 7.5%
7 | O=C1Cc2ccc(-c3ccco3)cc2Sc2cc(O)cc(O)c21 [Example 82] | 22.4%

Tested on: Sprague-Dawley line rats
Assay: Toxicity study of two-week repeated-dose oral administration with rats
Format: in vivo
Conditions: male, oral, 0, 125 and 500 mg/kg/day repeatedly for two weeks
Experimental: In order to study the toxicity by repeated-dose administration of compounds, the compounds were dosed orally to Sprague-Dawley line rats (three male rats per group) with 0, 125 and 500 mg/kg/day (a 0.5 w/v % CMC-Na solution) repeatedly for two weeks.

Row | SMILES | Results (toxicity findings)
8 | Oc1cc(O)c2c(c1)Sc1ccccc1CC2 [Comparative Example, reference compound] | Kidney damage were observed with

Tested on: not given
Assay: not given
Conditions: not given

Row | SMILES | melting point
9 | Oc1cc(O)c2c(c1)Sc1cc(-c3ccco3)ccc1CC2 [Example 124] | 148.5 to 149.6 °C
10 | Oc1cc(O)c2c(c1)Oc1cc(-c3cccs3)ccc1CC2 [Example 110] | 194.2 to 195.6 °C
11 | O=C1Cc2c(Cl)cccc2Sc2cc(O)cc(O)c21 [Example 17] | > 200 °C (dec.)
12 | Oc1cc(O)c2c(c1)Sc1cccc(Cl)c1CC2 [Example 27] | 127.3 to 130.7 °C
13 | CCC1C(=O)c2cc(O)c(O)cc2Sc2ccc(-c3cc4ccccc4s3)cc21 (stereo not drawn) [Example 172] | 251.4 to 255.5 °C (dec.)
14 | O=C1Cc2cc(Br)ccc2Sc2cc(O)c(O)cc21 [Example 22] | 285.7 °C (dec.)
15 | Nc1cccc(-c2ccc3c(c2)CC(=O)c2c(O)cc(O)cc2S3)c1 [Example 83] | > 200 °C (dec.)
16 | Oc1cc(O)c2c(c1)Sc1cc(-c3cccs3)ccc1CC2 [Example 123] | 196.1 to 198.5 °C
17 | Cc1ccc(-c2ccc3c(c2)Sc2cc(O)cc(O)c2C(=O)C3)cc1 [Example 86] | 228.4 to 235.2 °C
18 | O=C1Cc2cc(Br)ccc2Sc2cc(O)cc(O)c21 [Example 13] | 236.4 to 237.3 °C
19 | CCC1C(=O)c2cc(O)c(O)cc2Sc2ccc(Br)cc21 (stereo not drawn) [Example 44] | 235.6 to 237.4 °C
20 | Cc1ccc(-c2ccc3c(c2)Oc2cc(O)cc(O)c2C(=O)C3)cc1 [Example 71] | 208.8 to 210.2 °C
21 | CCC1C(=O)c2cc(O)c(O)cc2Sc2cc(-c3ccco3)ccc21 (stereo not drawn) [Example 153] | 242.9 to 248.4 °C
22 | CON=C(C)c1ccc2c(c1)CCc1c(O)cc(O)cc1S2 [Example 138] | 176.7 to 177.6 °C
23 | ON=C1Cc2ccccc2Oc2cc(O)cc(O)c21 [Example 24] | 208 to 213.7 °C
24 | CCC1C(=O)c2c(O)cc(O)cc2Sc2ccc(SC)cc21 (stereo not drawn) [Example 35] | 167.4 to 168.2 °C
25 | Oc1cc(O)c2c(c1)Oc1cc(-c3cccc(C(F)(F)F)c3)ccc1CC2 [Example 117] | 150.2 to 152.6 °C
26 | Oc1cc(O)c2c(c1)Oc1ccc(-c3ccccc3)cc1CC2 [Example 109] | 176.7 to 179.2 °C
27 | O=C1Cc2ccc(-c3cccc(C(F)(F)F)c3)cc2Sc2cc(O)cc(O)c21 [Example 91] | 225.3 to 226.5 °C
28 | O=CNc1cccc(-c2ccc3c(c2)CC(=O)c2c(O)cc(O)cc2O3)c1 [Example 75] | 241 to 247.08 °C
29 | CSc1ccc2c(c1)C=Cc1c(O)cc(O)cc1S2 [Example 28] | 182.9 to 184.4 °C
30 | Nc1cccc(-c2ccc3c(c2)CCc2c(O)cc(O)cc2O3)c1 [Example 119] | 197.2 to 199.3 °C
31 | CCC1C(=O)c2cc(O)c(O)cc2Sc2cc(-c3ccc(OC(F)(F)F)cc3)ccc21 (stereo not drawn) [Example 169] | 216.8 to 219.1 °C
32 | CCCCC(=O)c1ccc2c(c1)CCc1c(O)cc(O)cc1S2 [Example 131] | 155.1 to 158.7 °C
33 | O=C1Cc2ccc(-c3cccc(Cl)c3)cc2Oc2cc(O)cc(O)c21 [Example 69] | 199.9 to 201.4 °C

Row | SMILES | melting point
34 | O=C1Cc2cc(-c3ccc(-c4ccccc4)cc3)ccc2Oc2cc(O)cc(O)c21 [Example 79] | > 250 °C (dec.)
35 | O=C1Cc2cc(-c3ccccc3)ccc2Oc2cc(O)c(O)c(O)c21 [Example 88] | 124 to 125.8 °C
36 | OCCCc1ccc2c(c1)CCc1c(O)cc(O)cc1O2 [Example 103] | 153.3 to 154.8 °C
37 | O=C1Cc2ccc(-c3ccc(-c4ccccc4)cc3)cc2Oc2cc(O)cc(O)c21 [Example 96] | 261.6 to 263.2 °C
38 | Oc1cc(O)c2c(c1)Sc1ccc(-c3cccs3)cc1CC2 [Example 126] | 207.3 to 208.1 °C
39 | O=C1Cc2cc(-c3cccc([N+](=O)[O-])c3)ccc2Sc2cc(O)cc(O)c21 [Example 80] | > 250 °C (dec.)
40 | O=C1Cc2ccc(-c3ccccc3)cc2Sc2cc(O)cc(O)c21 [Example 87] | 209.7 to 212 °C
41 | O=C1Cc2ccc(Br)cc2Sc2cc(O)cc(O)c21 [Example 9, 3-Bromo-7,9-dihydroxy-10,11-dihydrodibenzo[b,f]thiepin-10-one] | > 200 °C (dec.)
42 | CCC1C(=O)c2cc(O)c(O)cc2Sc2cc(-c3ccc(C)cc3)ccc21 (stereo not drawn) [Example 160] | 271.9 to 273.3 °C
43 | O=C1Cc2ccc(-c3cccc(Cl)c3)cc2Sc2cc(O)cc(O)c21 [Example 90] | 180.3 to 191.6 °C
44 | O=C1Cc2ccc(-c3ccco3)cc2Sc2cc(O)cc(O)c21 [Example 82] | 234.9 to 238.8 °C
45 | CSc1ccc2c(c1)Sc1cc(O)c(O)cc1C(=O)C2 [Example 23] | 232 to 236.9 °C
46 | CC1=Cc2cc(O)c(O)cc2Sc2ccccc21 [Example 145] | 68.2 to 70.1 °C
47 | O=C1Cc2ccc(CCc3ccccc3)cc2Oc2cc(O)cc(O)c21 [Example 51] | 125.9 to 127.7 °C
48 | O=C1Cc2ccc(-c3ccc(O)c(O)c3)cc2Oc2cc(O)cc(O)c21 [Example 98] | 229.8 to 231.6 °C
49 | CCC1C(=O)c2cc(O)c(O)cc2Sc2ccc(-c3ccco3)cc21 (stereo not drawn) [Example 159] | 238.7 to 241.7 °C
50 | O=C1Cc2cc(-c3ccc(O)c(O)c3)ccc2Oc2cc(O)cc(O)c21 [Example 93] | > 250 °C
51 | O=C1Cc2ccc(-c3ccc(OC(F)(F)F)cc3)cc2Oc2cc(O)cc(O)c21 [Example 97] | 197.7 to 200.8 °C
52 | CCC1C(=O)c2cc(O)c(O)cc2Sc2cc(-c3cccc([N+](=O)[O-])c3)ccc21 (stereo not drawn) [Example 175] | 221.8 to 225 °C
53 | Oc1cc(O)c2c(c1)Oc1ccc(-c3cccs3)cc1CC2 [Example 111] | 188.3 to 191.4 °C
54 | CC1C(=O)c2ccc(O)cc2Sc2ccccc21 (stereo not drawn) [Example 41] | 190 to 191.6 °C
55 | Cc1ccccc1-c1ccc2c(c1)Oc1cc(O)cc(O)c1C(=O)C2 [Example 72] | 163.5 to 165.8 °C
56 | CC(C)(C)c1ccc2c(c1)CCc1c(O)cc(O)cc1S2 [Example 137] | 151.7 to 153.7 °C
57 | O=C1Cc2cc(-c3ccccc3)ccc2Sc2cc(O)cc(O)c21 [Example 78] | 190.8 to 195.3 °C
